Data as given in publication PMC8252432 (Angewandte Chemie (International Ed. in English), 2021).

System: trypsin
Assay: Trypsin digestion of Angiotensin III, LC-MS
Format: in vitro ADME
Conditions: 10 mM phosphate buffer pH 7.4, no nanoparticle (Figure 1a)

- time in which the peptide could be cleaved in buffer: 120 min
SMILES: CC[C@H](C)[C@H](NC(=O)[C@H](Cc1ccc(O)cc1)NC(=O)[C@@H](NC(=O)[C@@H](N)CCCN=C(N)N)C(C)C)C(=O)N[C@@H](Cc1c[nH]cn1)C(=O)N1CCC[C@H]1C(=O)N[C@@H](Cc1ccccc1)C(=O)O [A‐III, Angiotensin III]
